In article PMC9873571, “Plant-specific features of respiratory supercomplex I + III2 from Vigna radiata” (Nature Plants, 2022):

What was measured:
[1] = biological target: T1, V. radiata complex I (CI), NADH dehydrogenase site (Vigna radiata, UniProt A0A1S3V7V2); assay: NADH-cytochrome c oxidoreductase activity of purified SC I + III2; type: biochemical; details: 10 µM NADH, 100 µM decylubiquinone, 100 µM equine cyt c, pH 7.4
T1 construct: gene LOC106772405; native complex I, in purified supercomplex I + III2 (NADH) or in washed mitochondrial membranes (dNADH)

[2] = biological target: T2, V. radiata SC I + III2 (complex I, quinone-binding site) (Vigna radiata, UniProt A0A1S3U8J5+E9KZL0+E9KZN6); assay: NADH-cytochrome c oxidoreductase activity, A550; type: biochemical; details: 20 mM HEPES pH 7.4, 50 mM NaCl, 10% glycerol, 100 µM decylubiquinone, 100 µM equine cyt c, 10 µM NADH, 4 μM KCN
T2 construct: gene nad7; native complex I (14 core + 34 accessory subunits) in supercomplex I + III2, from etiolated hypocotyl mitochondria, digitonin-extracted, amphipol A8-35 stabilized, SEC purified; assayed as NADH-cyt c oxidoreductase; nad1 and NDUS2 transcripts RNA-edited
T2 sequence (E9KZN6 entry or part of it): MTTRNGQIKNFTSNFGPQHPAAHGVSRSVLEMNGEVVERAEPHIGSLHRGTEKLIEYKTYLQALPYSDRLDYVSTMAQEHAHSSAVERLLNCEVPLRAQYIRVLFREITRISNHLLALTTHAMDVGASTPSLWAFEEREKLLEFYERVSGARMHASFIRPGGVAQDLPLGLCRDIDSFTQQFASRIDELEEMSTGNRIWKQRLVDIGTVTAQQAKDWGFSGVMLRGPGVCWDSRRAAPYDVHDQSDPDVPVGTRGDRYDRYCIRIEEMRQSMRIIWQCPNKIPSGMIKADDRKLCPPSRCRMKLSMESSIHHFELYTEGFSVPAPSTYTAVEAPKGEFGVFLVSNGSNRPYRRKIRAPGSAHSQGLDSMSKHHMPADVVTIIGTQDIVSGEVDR
T2 sequence (E9KZL0 entry or part of it): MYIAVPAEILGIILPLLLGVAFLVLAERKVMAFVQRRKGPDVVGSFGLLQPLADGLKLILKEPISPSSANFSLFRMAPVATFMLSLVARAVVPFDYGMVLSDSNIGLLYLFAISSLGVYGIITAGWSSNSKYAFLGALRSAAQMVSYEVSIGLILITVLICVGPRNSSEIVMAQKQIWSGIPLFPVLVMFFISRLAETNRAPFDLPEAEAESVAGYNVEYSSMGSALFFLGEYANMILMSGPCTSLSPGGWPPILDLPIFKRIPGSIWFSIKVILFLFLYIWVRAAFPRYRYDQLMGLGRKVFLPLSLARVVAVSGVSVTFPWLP
T2 sequence (A0A1S3U8J5 entry or part of it): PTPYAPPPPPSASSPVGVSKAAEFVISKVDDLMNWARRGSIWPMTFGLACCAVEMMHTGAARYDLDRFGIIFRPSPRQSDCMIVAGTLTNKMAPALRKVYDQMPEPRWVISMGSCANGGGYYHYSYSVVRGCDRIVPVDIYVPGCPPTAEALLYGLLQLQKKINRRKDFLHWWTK

T1 sequence (A0A1S3V7V2 28-491): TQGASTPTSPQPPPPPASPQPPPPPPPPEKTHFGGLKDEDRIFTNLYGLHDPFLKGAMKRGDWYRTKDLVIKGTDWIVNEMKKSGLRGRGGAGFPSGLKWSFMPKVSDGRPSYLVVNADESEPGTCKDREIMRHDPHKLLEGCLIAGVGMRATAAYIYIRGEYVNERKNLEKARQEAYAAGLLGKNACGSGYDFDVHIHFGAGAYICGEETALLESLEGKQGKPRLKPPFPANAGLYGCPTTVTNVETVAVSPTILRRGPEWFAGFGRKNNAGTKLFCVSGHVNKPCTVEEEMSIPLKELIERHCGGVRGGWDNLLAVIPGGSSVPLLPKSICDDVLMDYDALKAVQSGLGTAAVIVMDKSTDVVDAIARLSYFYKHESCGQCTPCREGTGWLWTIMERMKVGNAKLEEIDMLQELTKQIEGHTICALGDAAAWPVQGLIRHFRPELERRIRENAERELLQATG
T1 sequence (A0A1S3TQ85 32-746 partner): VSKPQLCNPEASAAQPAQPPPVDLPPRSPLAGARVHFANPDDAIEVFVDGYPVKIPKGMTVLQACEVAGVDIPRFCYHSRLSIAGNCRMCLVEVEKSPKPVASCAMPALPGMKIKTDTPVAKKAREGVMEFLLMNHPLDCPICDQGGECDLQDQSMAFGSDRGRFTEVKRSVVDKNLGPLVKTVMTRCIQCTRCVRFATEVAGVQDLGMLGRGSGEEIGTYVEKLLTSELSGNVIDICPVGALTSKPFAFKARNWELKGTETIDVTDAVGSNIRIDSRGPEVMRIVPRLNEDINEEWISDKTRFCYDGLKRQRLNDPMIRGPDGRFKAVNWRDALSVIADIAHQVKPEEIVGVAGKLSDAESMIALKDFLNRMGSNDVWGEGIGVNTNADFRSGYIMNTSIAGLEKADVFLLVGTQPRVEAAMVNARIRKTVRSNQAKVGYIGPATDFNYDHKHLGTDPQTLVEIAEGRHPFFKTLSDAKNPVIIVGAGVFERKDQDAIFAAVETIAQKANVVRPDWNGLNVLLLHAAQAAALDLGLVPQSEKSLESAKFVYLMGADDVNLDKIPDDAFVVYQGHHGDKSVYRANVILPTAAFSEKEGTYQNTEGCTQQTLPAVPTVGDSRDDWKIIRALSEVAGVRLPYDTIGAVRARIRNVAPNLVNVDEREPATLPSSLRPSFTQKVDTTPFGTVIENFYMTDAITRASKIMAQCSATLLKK
T1 sequence (A0A1S3U769 25-251 partner): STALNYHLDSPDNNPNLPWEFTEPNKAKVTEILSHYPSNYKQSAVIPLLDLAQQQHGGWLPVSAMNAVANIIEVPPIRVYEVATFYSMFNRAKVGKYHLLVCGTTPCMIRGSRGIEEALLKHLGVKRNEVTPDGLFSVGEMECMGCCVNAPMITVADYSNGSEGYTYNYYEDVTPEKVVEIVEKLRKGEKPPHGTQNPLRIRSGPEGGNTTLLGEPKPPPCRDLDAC

| Structure (SMILES) | NADH-cytochrome c oxidoreductase activity of purified SC I + III2 [1] | inhibition at 20 μM [2] |
| --- | --- | --- |
| NC(=O)C1=CN([C@@H]2O[C@H](COP(=O)(O)OP(=O)(O)OC[C@H]3O[C@@H](n4cnc5c(N)ncnc54)[C@H](O)[C@@H]3O)[C@@H](O)[C@H]2O)C=CC1 [NADH] | The final biochemical sample showed the expected NADH-cyt c oxidoreductase activity |  |
| C/C=C(\C)[C@H](O)[C@H](C)/C=C(C)/C=C/C/C(C)=C/Cc1nc(OC)c(OC)c(O)c1C [piericidin A] |  | inhibited by CI and CIII2 inhibitors piericidin A and antimycin A, respectively |
